This note sets out measurements from ChEMBL document CHEMBL1156377, “New cytotoxic N-methylated beta-carboline alkaloids from the marine ascidian Eudistoma gilboverde” (J Nat Prod, 2001).

Common to all, as to assay type: functional, cell-based
In experiment [1] the test system is MOLT-4. The experiment in a line: Cytotoxicity against human MOLT4 cells after 2 days. The conditions noted are these: MOLT-4, 48 h.
Experiment [2] is described as follows: Cytotoxicity against human LOX cells after 2 days. The conditions noted are these: 48 h.
In experiment [3] the test system is COLO 205. Description: Cytotoxicity against human COLO205 cells after 2 days. To be noted: COLO 205, 48 h.
Experiment [4] has as its system OVCAR-3. Description: Cytotoxicity against human OVCAR-3 cells after 2 days. To be noted: OVCAR-3, 48 h.

Converted amounts (≈) assume the structure as drawn.

Consider `C[n+]1ccc2c(c1)[nH]c1ccc(O)c(Br)c12.[Cl-]`, for which the 50% inhibitory concentration (IC50) worked out at 16.6 µg/mL in experiment [1], 15 µg/mL in experiment [2], 19.1 µg/mL in experiment [3] and 20 µg/mL in experiment [4].

On to `C[n+]1ccc2c(c1)[nH]c1cc(Br)c(O)cc12.[Cl-]`, for which the IC50 in experiment [1] was 17.5 µg/mL; in experiment [2], 15.1 µg/mL; in experiment [3], 15.1 µg/mL; in experiment [4], 20 µg/mL.

`CSC[C@H](c1nccc2c1[nH]c1ccc(O)c(Br)c12)N(C)C`: the IC50 in experiment [1] came to 0.57 µg/mL (≈ 1.5 µM); in experiment [2], 0.41 µg/mL (≈ 1.08 µM); in experiment [3], 0.42 µg/mL (≈ 1.1 µM); in experiment [4] it was 0.98 µg/mL (≈ 2.58 µM).
